Experimental data: US20240016795A1, “BROMODOMAIN INHIBITORS FOR ANDROGEN RECEPTOR-DRIVEN CANCERS” (FORMA Therapeutics, Inc., priority 2020, published 2024)
Several values for one entry are separate records, joined by “and”; a condition that tells them apart may be missing. Equal values may be shown once. Read-outs that look alike come from different tables or passages of the source.

What was measured:
[1] = test system: MYC; experiment: qPCR gene expression in 22Rv1, MYC; assay type: cell-based; conditions: Homo sapiens, 22Rv1, 24 h
Protocol: (§1) RNA was extracted using Qiacube RNAeasy Mini (Qiagen). For all genes tested, the qPCR reactions were carried out in triplicate with 250 ng RNA per reaction and Taqman® primer-probes. GAPDH was used as a housekeeping gene.

[2] = test system: 22Rv1; experiment: 10-day prostate cancer cell proliferation assay, 22Rv1; assay type: cell-based; conditions: Homo sapiens, 22Rv1, 240 h
Protocol: (§2) Prostate cell lines were obtained from ATCC or DSMZ and cultured according to the distributor's recommendations. Prostate cancer cells were plated and incubated overnight. […] Cell viability was assessed using a CellTiter-Glo® assay (Promega) after 10 days drug exposure. The growth inhibitory effect was assessed by the concentration inhibiting growth by 50% using a nonlinear regression equation and a variable slope (Graphpad Prism).

[3] = test system: TMPRSS2; experiment: Taqman gene expression in AR-positive breast cancer cells, TMPRSS2; assay type: cell-based; conditions: 24 hours, read-out: IC50, TMPRSS2 mRNA
Protocol: AR-positive breast cancer cells were exposed to increasing concentrations of compounds for 24 hours. RNA was extracted and gene expression measured using Taqman® assays for TMPRSS2 and XBP1.

[4] = test system: BT549; experiment: 10-day CellTiter-Glo antiproliferative assay, BT549; assay type: cell-based; conditions: Homo sapiens, BT-549, 240 h, 10-day exposure, AR Low, ER −, Her2 −
Protocol: (§3) Breast cell lines were cultured according to the distributor's recommendations. The following day, cells were exposed to compounds up to 10 days. Cell viability was assessed using a CellTiter-Glo® assay (Promega) at the end of the incubation period. The growth inhibitory effect was assessed by the concentration inhibiting growth by 50% using a nonlinear regression equation and a variable slope (Graphpad Prism). The mRNA expression levels for the androgen receptor (HUGO: AR) was determined from the DepMap Portal database (release 19Q2).

[5] = test system: AR-negative prostate cancer cell lines DU145 and PC-3; experiment: 10-day proliferation assay, AR-negative prostate cancer cell lines; assay type: cell-based; conditions: 10-day assay
Protocol: Two AR-negative prostate cancer cell lines DU145 and PC-3 were also evaluated.
as §2

[6] = test system: AR-v7; experiment: AR-v7 protein level by western blot in prostate cancer cells; assay type: cell-based
[7] = test system: MFM223; experiment: 10-day CellTiter-Glo antiproliferative assay, MFM223; assay type: cell-based; conditions: Homo sapiens, MFM-223, 240 h, 10-day exposure, AR Low, ER −, Her2 −
Protocol: as §3

[8] = test system: KLK3; experiment: qPCR gene expression in AR-v7+ prostate cancer cells, KLK3; assay type: cell-based; conditions: 24 h
Protocol: (§4) AR-v7+ prostate cancer cells were exposed to compounds 1, 2, 3, or 4 for 24 h. RNA was extracted and gene expression was measured by qPCR using Taqman® primer-probes. GAPDH was used as a housekeeping gene.

[9] = test system: SORD; experiment: qPCR gene expression in VCaP, SORD; assay type: cell-based; conditions: Homo sapiens, 24 h
Protocol: as §1

[10] = test system: MDA-MB-453; experiment: 10-day CellTiter-Glo antiproliferative assay, MDA-MB-453; assay type: cell-based; conditions: Homo sapiens, MDA-MB-453, 240 h; 10-day exposure, CellTiter-Glo; AR High, ER −, Her2 +/−; read-out: IC50 (μM), MDA-MB-453
Protocol: as §3

[11] = test system: H3K27Ac; experiment: H3K27Ac western blot in a prostate cancer cell line; assay type: cell-based
[12] = test system: KLK3 (PSA); experiment: qPCR gene expression in VCaP, KLK3 (PSA); assay type: cell-based; conditions: Homo sapiens, 24 h
Protocol: as §1

[13] = test system: SPDEF; experiment: qPCR gene expression in 22Rv1, SPDEF; assay type: cell-based; conditions: Homo sapiens, 22Rv1, 24 h
Protocol: as §1

[14] = test system: TMPRSS2; experiment: qPCR gene expression in AR-v7+ prostate cancer cells, TMPRSS2; assay type: cell-based; conditions: 24 h
Protocol: as §4

[15] = target: p300 bromodomain (Homo sapiens (Human), UniProt Q09472); experiment: Time-resolved fluorescence biochemical assay, p300; assay type: binding; conditions: GST fusion of the p300 bromodomain
Text: Data is fitted using the Levenburg Marquardt algorithm. […] Data is fitted using the Levenburg Marquardt algorithm.

[16] = test system: HCC1500; experiment: 10-day CellTiter-Glo antiproliferative assay, HCC1500; assay type: cell-based; conditions: HCC1500, 240 h, 10-day exposure, AR High, ER +, Her2 −
Protocol: as §3

[17] = test system: FKBP5; experiment: qPCR gene expression in 22Rv1, FKBP5; assay type: cell-based; conditions: Homo sapiens, 22Rv1, 24 h
Protocol: as §1

[18] = test system: H3K27Ac; experiment: H3K27Ac western blot in MDA-MB-453 cells; assay type: cell-based; conditions: MDA-MB-453, 24 hrs, western blot
Protocol: H3K27Ac is a specific mark of CBP/p300 activity and thus offers a means to directly assess the impact of CBP/p300 inhibition in cells.
MDA-MB-453 cells were plated overnight and exposed to the compounds for 24 hours. Lysates were prepared from the cells in E-PAGE loading buffer (Invitrogen) and analyzed by western blot with antibodies diluted 1:1000 for anti-H3K27Ac, 1:2000 for anti-total H3 and 1:10,000 for anti-β actin. The blots were scanned and analyzed on a LI-COR Odyssey image analyzer. H3K27Ac levels were normalized to β-Actin.
Finally, a washout experiments was carried out with compound 4 to assess the recovery of the biomarker after removal of the compound. […] Lysates were prepared and analyzed by western blot, as described above.

[19] = test system: panel of 10 BRD representing the various branches of the bromodomain tree; experiment: AlphaScreen panel of 10 bromodomains; assay type: binding
[20] = test system: DU 145; experiment: 10-day prostate cancer cell proliferation assay, DU 145; assay type: cell-based; conditions: Homo sapiens, DU-145, 240 h; 10 days exposure; AR negative
Protocol: as §2

[21] = test system: TMPRSS2; experiment: qPCR gene expression in 22Rv1, TMPRSS2; assay type: cell-based; conditions: Homo sapiens, 22Rv1, 24 h
Protocol: as §1

[22] = test system: MYC; experiment: qPCR gene expression in AR-v7+ prostate cancer cells, MYC; assay type: cell-based; conditions: 24 h
Protocol: as §4

[23] = test system: patient-derived xenograft (PDX) model of AR+ prostate cancer sensitive to enzalutamide; experiment: Patient-derived xenograft of prostate cancer sensitive to enzalutamide; assay type: in vivo, NOG mice; conditions: Compound 1 40 mg/kg/day, enzalutamide 20 mg/kg/day
Protocol: The antitumor activity was determined based by tumor volume during the course of the study.
Male NOG mice (6-8 weeks of age) were implanted with tumor fragments. When tumors reached an average tumor volume of 150-200 mm^3 animals were randomized into different cohort groups and dosing initiated on the same day (Day 0). Animals were weighed twice weekly.
[…] 11.

[24] = test system: human kinases and disease-relevant mutant variants; experiment: KINOMEscan screen; assay type: binding

Chain of p300 bromodomain (Q09472 1049-1156): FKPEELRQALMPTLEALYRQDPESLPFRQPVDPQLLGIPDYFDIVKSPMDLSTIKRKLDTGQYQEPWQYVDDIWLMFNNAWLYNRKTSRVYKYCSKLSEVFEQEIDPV

Question: Which IC50 [1] does the source give for `COC(=O)N1c2ccc3c(nc([C@H](O)c4cc(F)ccc4OC)n3[C@@H]3CCC[C@@H](C(=O)O)C3)c2CC[C@@H]1C` [Compound 1, (1R,3R)-3-[(7S)-2-[(R)-(5-fluoro-2-methoxyphenyl)(hydroxy)methyl]-6-(methoxycarbonyl)-7-methyl-3H,6H,7H,8H,9H-imidazo[4,5-f]quinolin-3-yl]cyclohexane-1-carboxylic acid] here?
Answer: The IC50 was > 0.1 µM.

Question: What about the IC50 ([2]; 10-day assay, read-out: anti-proliferative effect (IC50), 22Rv1) of the same compound?
Answer: The IC50 was 500 to 1000 nM.

Question: What about the IC50 ([2]; 10 days exposure, H857Y/H857Y, AR v7+, androgen-independent, read-out: IC50, 22Rv1) of the same compound?
Answer: The IC50 was 500 to 1000 nM.

Question: What about the IC50 [3] of the same compound?
Answer: The IC50 was < 100 nM.

Question: And the IC50 [4]?
Answer: Its IC50 is > 1 µM.

Question: What about the “antiproliferative effect, AR-negative cell lines” value [5] of the same compound?
Answer: Its value is “inactive”.

Question: What about the “AR-v7 reduction maintained after removal of compound” value ([6]; 22Rv1, after a 24 hr exposure) of the same compound?
Answer: The value was 72 h.

Question: What about the AR-v7 protein level ([6]; androgen-independent (AR-v7+) prostate cancer cells, western blot) of the same compound?
Answer: Its AR-v7 protein level is “reduced”.

Question: And the IC50 [7]?
Answer: The IC50 was > 1 µM.

Question: And the IC50 [8]?
Answer: The IC50 was 10 to 50 nM.

Question: What about the IC50 [9] of the same compound?
Answer: The IC50 was > 0.1 µM.

Question: What about the IC50 [10] of the same compound?
Answer: The IC50 was < 0.2 µM.

Question: What about the H3K27Ac level [11] of the same compound?
Answer: Its H3K27Ac level is “reduces H3K27Ac in a concentration-dependent manner”.

Question: And the IC50 [12]?
Answer: The IC50 was 0.01 to 0.05 µM.

Question: And the IC50 [13]?
Answer: Its IC50 is > 0.1 µM.

Question: And the IC50 [14]?
Answer: Its IC50 is < 10 nM.

Question: And the IC50 [15]?
Answer: Its IC50 is < 2 nM and ~1 nM.

Question: And the IC50 [16]?
Answer: The IC50 was 0.5 to 1 µM.

Question: And the IC50 [17]?
Answer: The IC50 was > 0.1 µM.

Question: What about the H3K27Ac level [18] of the same compound?
Answer: The H3K27Ac level was “concentration dependent reduction”.

Question: What about the “activity against panel of bromodomains” value [19] of the same compound?
Answer: The value was “inactive against 8”.

Question: And the IC50 ([19]; read-out: IC50 in multiple assays of the panel of 10 bromodomains)?
Answer: The IC50 was > 10000 nM.

Question: What about the IC50 [20] of the same compound?
Answer: Its IC50 is > 1000 nM.

Question: What about the IC50 [21] of the same compound?
Answer: The IC50 was < 0.01 µM.

Question: And the IC50 [22]?
Answer: The IC50 was > 100 nM.

Question: What about the “AR target gene SPDEF expression in tumor” value ([23]; four days) of the same compound?
Answer: The value was “reduced”.

Question: And the H3K27Ac in tumor ([23]; four days)?
Answer: The H3K27Ac in tumor was “reduction of H3K27Ac”.

Question: What about the “TGI at the end of study” value ([23]; start of dosing to day 59) of the same compound?
Answer: Its value is “comparable”.

Question: And the “binding affinity for kinases” value [24]?
Answer: Its value is “no to low binding affinity”.
